Laboratory results taken from patent publication US7973078B2, “Sulfonamide compound or salt thereof” (Astellas Pharma Inc., priority 2006, dated 2011).

What was measured:
rat EP1 receptor [1] = target: T1, rat EP1 receptor (Rattus norvegicus, UniProt P70597); test: Receptor binding test using EP1 receptor-expressing cells (3H-PGE2 binding to membrane sample); design: expressed in transfected cells; host or cells: HEK293EBNA cells, pCEP4 vector, transient (2 days); crude membrane sample; conditions: membrane of HEK293EBNA cells expressing rat EP1; 2.5 nM 3H-PGE2; Ki=IC50/(1+([C]/Kd))
T1 sequence (P70597 1-405): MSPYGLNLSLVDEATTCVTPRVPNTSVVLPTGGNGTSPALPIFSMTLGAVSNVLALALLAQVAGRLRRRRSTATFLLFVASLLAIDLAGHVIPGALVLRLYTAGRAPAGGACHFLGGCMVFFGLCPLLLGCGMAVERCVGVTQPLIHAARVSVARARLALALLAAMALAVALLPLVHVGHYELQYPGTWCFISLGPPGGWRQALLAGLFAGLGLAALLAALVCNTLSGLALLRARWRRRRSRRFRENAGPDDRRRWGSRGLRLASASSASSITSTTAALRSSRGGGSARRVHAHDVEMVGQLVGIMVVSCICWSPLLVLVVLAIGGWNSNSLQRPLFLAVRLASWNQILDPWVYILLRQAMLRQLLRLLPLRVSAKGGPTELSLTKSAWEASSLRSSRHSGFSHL
Description: (2) Receptor Binding Test Using EP1 Receptor-Expressing Cells
A signal peptide (MKTIIALSYIFCLVFA: SEQ ID NO: 1) and a FLAG sequence (DYKDDDDK: SEQ ID NO: 2) were introduced at the N-terminus of a rat EP1 receptor, followed by subcloning into an expression vector (Product Name: pCEP4, Invitrogen Corporation). An HEK293EBNA cell (American Type Culture Collection) was transfected with the rat EP1 expression vector using a transfection regent (Product Name: Fugene-6, Roche-Diagnostics, K.K), and then cultured for 2 days in a medium containing 10% FBS (Product Name: DMEM, Invitrogen Corporation) at 37° C. under 5% CO2. After culturing, the cells were recovered, treated with a cell lysate (20 mM Tris(hydroxymethyl)aminomethane (Tris)buffer pH7.5, 5 mM ethylene diaminetetraacetic acid(EDTA)), and ultracentrifuged (23,000 revolution, 25 minutes×2) for a rough preparation of a membrane sample.
A reaction solution containing the prepared membrane sample (15 μg) and ^3H-PGE2 (150 μl, composition: 10 mM 2-(N-morpholino)ethanesulfonic acid (MES)/potassium hydroxide(KOH) pH6.0, 1 mM EDTA, 10 mM magnesium chloride (MgCl2), 0.02% 3-[(3-Cholamidopropyl)dimethylammonio] propanesulfonate (CHAPS)) was incubated at room temperature for 1 hour. The reaction was terminated with an ice-cooled buffer, and suction-filtered under reduced pressure to trap the bound ^3H-PGE2 to a glass fiber filter (Product Name: UNIFILTER-96, GF/B, PerkinElmer Japan Co., Ltd.), so as to measure the radioactivity of the binding with a microplate scintillation counter (Product Name: TopCount, Packard) using Microscinti (Product Name: Microscinti 20, PerkElmer Japan Co., Ltd.).
The dissociation constant (Kd) and the maximum binding (Bmax) were determined using Scatchard plot (Annals of the New York Academy of Science, US, volume 51, page 660, 1949). Nonspecific bindings were determined as bindings in the presence of an excessive amount (2.5 μM) of label-free PGE2. The assessment of inhibitory effect on ^3H-PGE2 binding by the compound was carried out by adding 2.5 nM ^3H-PGE2 and the compound.
The inhibition constant Ki(nM) for each compound was obtained using the following formula: Ki=IC50/(1+([C]/Kd))
wherein [C] represents the concentration of ^3H-PGE2 employed in a reaction system.

rat EP1 receptor [2] = target: T1, rat EP1 receptor; test: Receptor antagonistic activity using cells expressing an EP1 receptor (PGE2-induced intracellular Ca change, FLIPR); type: cell-based; conditions: HEK293 cells stably expressing rat EP1 receptors; 100 nM PGE2; Ca concentration in cells
Description: 1. Experiment to Measure a Receptor Antagonistic Activity Using Cells Expressing an EP1 Receptor
HEK293 cells (American Type Culture Collection) that stably expressed rat EP1 receptors were dispensed onto a 96-well poly-D-lysine-coated plate (Product Name: Biocoat, PDL96W black/clear, Nippon Becton Dickinson) to a 2×10^4 cells/well at the day before the experiment, and incubated overnight at 37° C. under 5% carbon dioxide (CO2) in a culture medium containing 10% fetal bovine serum (FBS) (Product Name: DMEM, Invitrogen Corporation). The culture medium was replaced by a loading buffer (a washing solution containing a 4 μM fluorescent indicator (Product Name: Fluo3-AM, Tong Ren Tang Technologies Co. Ltd.):a Hank's balanced salt solution)(HBSS), 20 mM 2-[4-(2-hydroxyethyl)-1-piperazinyl]ethanesulfonic acid (HEPES)-sodium hydroxide (NaOH), 2.5 mM Probenecid, 0.1% bovine serum albumin (BSA)), and left to stand at room temperature for 3 hours, and the cells were washed using a plate washer in which a washing solution had been set up (Product Name: ELx405, BIO-TEK instrument Corporation). The compound that had been preliminarily dissolved and diluted in a washing solution was added thereto, and set up in a system for measuring a calcium (Ca) concentration in a cell (Product Name: FLIPR, Molecular Devices Corporation). After 5 minutes, PGE2 was added to a final concentration of 100 nM, and the change in Ca concentrations in cells was measured. A difference between a maximum value and a minimum value in Ca concentrations in cells was determined, and kept as measurement data. With a response upon addition of 100 nM PGE2 being set at […], and a response upon addition of a buffer being set at 100%, the concentration causing 50% inhibition was determined as an IC50 value.
In the table, Pre represents Preparative Example No. as described later, and Ex represent Example No. as described later.

SMILES	Ki (rat EP1 receptor [1]) [nM]	IC50 (rat EP1 receptor [2]) [nM]
Cc1ccc(S(=O)(=O)N(CC(=O)NCc2cccc(C(=O)O)c2)c2cccc(Cl)c2C)cc1 [Ex7]	0.57	1.6
Cc1ccc(S(=O)(=O)N(CC(=O)NCc2cccc(OCC(=O)O)c2)c2cccc(Cl)c2C)cc1 [Ex16]	1	2.4
Cc1ccc(S(=O)(=O)N(CC(=O)NCc2ccc(C(=O)NS(C)(=O)=O)cc2)c2cccc(Cl)c2C)cc1 [Ex20]	0.74	1.4
COC(=O)c1ccc(CNC(=O)CN(c2cccc(Cl)c2C)S(=O)(=O)c2ccc(C)cc2)cc1 [Ex24]	–	1
Cc1ccc(S(=O)(=O)N(CC(=O)NCc2ccc(-n3cccn3)cc2)c2cccc(Cl)c2C)cc1 [Ex26]	–	2.5
COc1c(Cl)cccc1N(CC(=O)NCc1cccc(C(=O)O)c1)S(=O)(=O)c1ccc(C)cc1 [Ex38]	0.48	1.5
CCc1c(Cl)cccc1N(CC(=O)NCc1cccc(C(=O)O)c1)S(=O)(=O)c1ccc(C)cc1 [Ex40]	0.33	0.72
CCc1c(Cl)cccc1N(CC(=O)NCc1cccc(/C=C/C(=O)O)c1)S(=O)(=O)c1ccc(C)cc1 [Ex74]	0.35	1
COc1ccc(CNC(=O)CN(c2cccc(Cl)c2C)S(=O)(=O)c2ccc(C)cc2)cc1 [Pre1, N^2-(3-chloro-2-methylphenyl)-N-(4-methoxybenzyl)-N^2-[(4-methylphenyl)sulfonyl] glycinamide]	0.68	16
Cc1ccc(S(=O)(=O)N(CC(=O)NCc2ccncn2)c2cccc(Cl)c2C)cc1 [Pre15]	–	12
